The values that follow come from patent US20190201419A1, “COMPOUND AND METHOD FOR THE TREATMENT AND DIAGNOSIS OF NEURODEGENERATIVE CONDITIONS” (Swansea University, priority 2013, published 2019).

The target of one data set is T1, Lxrα (Homo sapiens, UniProt Q13133).
T1 construct: expressed in transfected cells; host or cells: SN4741 mouse neuronal cell line
T1 sequence (Q13133 1-447): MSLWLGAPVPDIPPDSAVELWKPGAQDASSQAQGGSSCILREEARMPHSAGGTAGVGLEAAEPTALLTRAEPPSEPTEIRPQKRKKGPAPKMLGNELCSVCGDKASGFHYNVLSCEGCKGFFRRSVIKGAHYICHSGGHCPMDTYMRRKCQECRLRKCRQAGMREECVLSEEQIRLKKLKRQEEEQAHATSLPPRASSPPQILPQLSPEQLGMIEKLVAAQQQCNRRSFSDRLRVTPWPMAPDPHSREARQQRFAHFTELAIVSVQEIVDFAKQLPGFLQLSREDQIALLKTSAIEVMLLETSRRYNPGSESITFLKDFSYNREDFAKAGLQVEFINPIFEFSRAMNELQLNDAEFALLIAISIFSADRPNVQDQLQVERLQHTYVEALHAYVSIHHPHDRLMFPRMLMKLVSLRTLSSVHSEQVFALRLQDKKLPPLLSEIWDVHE
In words: Lxrα luciferase reporter assay in SN4741 neural cells. It counts as cell-based, mouse. The following applies: for Lxrα activation, luciferase activity (fold activation): 10 μM, 24 h. The source says: (§1) Luciferase Reporter Assay.

Another data set deals with T2, Lxrβ (Homo sapiens, UniProt P55055).
T2 construct: expressed in transfected cells; host or cells: SN4741 mouse neuronal cell line
T2 sequence (P55055 1-460): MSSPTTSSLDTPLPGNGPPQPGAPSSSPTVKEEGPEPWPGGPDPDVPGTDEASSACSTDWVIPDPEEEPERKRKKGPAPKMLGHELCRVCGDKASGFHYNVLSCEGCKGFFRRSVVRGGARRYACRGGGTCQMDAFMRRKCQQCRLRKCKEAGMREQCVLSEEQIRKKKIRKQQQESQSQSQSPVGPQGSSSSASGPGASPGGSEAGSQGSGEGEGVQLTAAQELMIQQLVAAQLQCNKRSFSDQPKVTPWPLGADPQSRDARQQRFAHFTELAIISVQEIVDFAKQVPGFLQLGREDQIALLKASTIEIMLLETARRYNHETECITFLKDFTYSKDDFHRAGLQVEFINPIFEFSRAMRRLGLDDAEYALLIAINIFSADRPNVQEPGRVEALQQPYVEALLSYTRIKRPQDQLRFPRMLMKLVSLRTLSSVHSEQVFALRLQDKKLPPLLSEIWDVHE
Kind of data set: Lxrβ luciferase reporter assay in SN4741 neural cells. The format is cell-based, mouse. The settings on record: SN4741 cells, 10 μM, 24 h.
Excerpt: as §1

In the next data set the test system is zebrafish embryos. Kind of data set: Survival of transgenic zebrafish embryos on compound exposure. It counts as in vivo. As for the experimental part:
(§2) Zebrafish Strain and Maintenance Zebrafish were raised on a 14/10 h day/night cycle and were kept at 28.5 ° C. Islet-1:GFP transgenic embryos were obtained via natural spawning and staged in hours or days post fertilization (hpf and dpt) according to Kimmel et al). Embryos older than 24 hpf were treated with 0.03% phenylthiourea (PTU) to inhibit pigmentation. MO injections were performed using splice site specific zebrafish lxi MO MO injected embryos were immediately dechorionated and transferred to a 96 well plate and exposed to dimethyl sulfoxide (DMSO) treated or ligand treated medium. Compound Exposure. Islet-1:GFP embryos were collected by natural mating and immediately (at 1 cell stage) dechorionated and transferred to a 96 well plate. Each of the compounds tested were obtained as 10 mM stock and diluted in embryo medium to a final concentration of 10 μM, and 200 μL was added to each well. DMSO or propan-2-ol treated embryo medium was taken as control. Ligand solutions were replaced every 12 h with fresh ligand solution prepared in PTU treated embryo medium. Embryos were collected at 48 hpf, fixed for 4 h at room temperature with 4% paraformaldehyde and then washed and kept in PBST. Immunocytochemistry was performed using an anti-GFP antibody and fluorescence was viewed and photographed using a Zeiss Axioplan compound microscope and a Zeiss Axiocam digital camera.

The subject of data set [1] is Islet1+ oculomotor neurons. Kind of data set: Islet1+ cells in mouse E11.5 brain primary cultures. It counts as cell-based. The settings on record: wild type cultures. As for the experimental part:
Primary Brain Cultures. Brains from E11.5 mice were manually dissected, plated on poly-D-lysine (150,000 cells/cm^2) and grown in serum-free N2 media consisting of 1:1 mixture of F12 and DMEM with 10 ng/mL insulin, 100 μg/mL apo-transferrin, 100 μM putrescine, 20 nM progesterone, 30 nM selenium, 6 mg/mL glucose, and 1 mg/mL BSA. Cells were treated for 3 days in vitro (DIV) with the compounds of interest, fixed with 4% PFA and processed for staining using appropriate antibodies.
Antibodies and Detection Procedures. Cells were fixed in 4% PFA, washed in PBS and blocked in 5% normal goat serum/PBS for 1 h at room temperature. Primary antibodies were diluted in PBS (pH 7.4), 0.3% Triton X-100, 1% BSA and incubations were carried out overnight at +4° C. or at room temperature for 2 h. The antibodies used were anti-:BrdU (1:400; Abeam), Islet-1 (1:100: Developmental Studies Hybridoma Bank), cleaved caspase-3 (Aspt 75) (1:100; Cell Signaling Technology), tyrosine hydroxylase (TH; 1:1000; Pel-Freeze) GABA (1:1,000; Sigma), Bm3a (1:250; Millipore), Nkx6.1 (1:200; Novus Biologicals), choline acetyltransferase (ChAT; 1:500; Millipore) and appropriate secondary antibodies (Jackson ImmunoResearch or Alexa). Cells positive for the corresponding marker were counted directly at the microscope at a magnification of 20×. Cells were counted in every well, in eight consecutive fields (going from one side of the well to the other, passing through the center), in three different wells per experiment and in three different experiments per condition. Random pictures of the wells were taken for every condition to document the result, and representative pictures were subsequently selected to represent the quantitative data. Photos were acquired with a Zeiss Axioplan microscope and a Hamamatsu camera C4742-95 using the Openlab software.

Another data set relates to Islet-1. Kind of data set: Islet-1 expression in Tg[Isl1:GFP] zebrafish embryos. The settings on record: 10 μM, embryos 48 hpf. The format is in vivo. As for the experimental part: Quantitative PCR, Total RNA was extracted from SN4741. cells and zebrafish treated with the compounds of interest using the RNeasy Mini Kit (Qiagen), 1 μg was treated with RQ1 RNase-free DNase (Promega) and reverse transcribed using SuperScript II Reverse Transcriptase (invitrogen) and random primers (invitrogen) (RT+reaction). Parallel reactions without reverse transcriptase enzyme were done as a control (RT−reaction), and Sybergreen real-time quantitative PCR assays were performed. Expression levels were obtained by normalization with the Value of the housekeeping gene encoding actin obtained for every sample in parallel assays.
as §2

In the case of `CC(C)CCC[C@@H](C)[C@H]1CC[C@H]2[C@@H]3[C@H](O)CC4=CC(=O)CC[C@]4(C)[C@H]3CC[C@]12C` [7α-HCO, 7α-Hydroxycholest-4-en-3-one], the “Lxrα activation, luciferase activity (fold activation)” value (shortened to “Lxrα activation … (fold activation)”) on Lxrα was “None of these compounds showed significant activity”. For the molecule `CC(C)CCC[C@@H](C)[C@H]1CC[C@H]2[C@@H]3CCC4=CC(=O)CC[C@]4(C)[C@H]3CC[C@]12C` [cholest-4-en-3-one], on Lxrα, the “Lxrα activation … (fold activation)” value is reported as “None of these compounds showed significant activity”. For the molecule `CC(CO)CCC[C@@H](C)[C@H]1CC[C@H]2[C@@H]3[C@H](O)C=C4C[C@@H](O)CC[C@]4(C)[C@H]3CC[C@]12C` (stereo partly drawn) [7α,26-diHC, 7α,26-dihydroxycholesterol], the “Lxrα activation … (fold activation)” value at Lxrα is reported as “none of which was found to show significant activity”. Also, the “Lxrβ activation, luciferase activity (fold activation)” value (shortened to “Lxrβ activation … (fold activation)”) at Lxrβ is listed as “none of which was found to show significant activity”. For the molecule `CC(CCC[C@@H](C)[C@H]1CC[C@H]2[C@@H]3[C@@H](O)CC4=CC(=O)CC[C@]4(C)[C@H]3CC[C@]12C)C(=O)O` (stereo partly drawn) [7βH,3O-CA, 7β-hydroxy-3-oxocholest-4-en-26-oic acid], at Lxrα, the “Lxrα activation … (fold activation)” value is “none of which was found to show significant activity”. Moreover, the “Lxrβ activation … (fold activation)” value at Lxrβ is recorded as “none of which was found to show significant activity”. Regarding `C[C@H](CCC(=O)O)[C@H]1CC[C@H]2[C@@H]3[C@H](O)C[C@@H]4C[C@H](O)CC[C@]4(C)[C@H]3CC[C@]12C` [CDCA, chenodeoxycholic acid, reference compound], the “Toxic effect on survival of the fish” value in the data set on zebrafish embryos is “had a deleterious toxic effect which impaired the survival of the fish”. `CC(C)[C@@H](O)CC[C@@H](C)[C@H]1CC[C@H]2[C@@H]3CC=C4C[C@@H](O)CC[C@]4(C)[C@H]3CC[C@]12C` [24S-HC, cholest-5-ene-3β,24S-diol]: the “Lxrα activation … (fold activation)” value at Lxrα is on record as “activate Lxr”. Also, the “Lxrβ activation … (fold activation)” value at Lxrβ is listed as “activate Lxr”.

As for `C[C@@H](CO)CCC[C@@H](C)[C@H]1CC[C@H]2[C@@H]3CC=C4C[C@@H](O)CC[C@]4(C)[C@H]3CC[C@]12C` [26-HC, cholest-(25R)-5-en-3β,26-diol], on Lxrα, the “Lxrα activation … (fold activation)” value was “had no a significant effect”. For the same molecule, on Lxrβ, the “Lxrβ activation … (fold activation)” value is “had no a significant effect”. Also, the “Number of Islet1+ cells” value in data set [1] is listed as “no effect on the number of Islet1+ cells”.

In the case of `CC(CO)CCC[C@@H](C)[C@H]1CC[C@H]2[C@@H]3[C@H](O)CC4=CC(=O)CC[C@]4(C)[C@H]3CC[C@]12C` (stereo partly drawn) [7α,26-diHCO, 7α,26-dihydroxycholest-4-en-3-one], the “Lxrα activation … (fold activation)” value at Lxrα was “none of which was found to show significant activity”. Further, the “Lxrβ activation … (fold activation)” value on Lxrβ is “none of which was found to show significant activity”. For the molecule `CC(C)CCC[C@@H](C)[C@H]1CC[C@H]2[C@@H]3CC[C@H]4C[C@@H](O)CC[C@]4(C)[C@H]3CC[C@]12C` [5α-cholestan-3β-ol], the “Lxrα activation … (fold activation)” value at Lxrα is “None of these compounds showed significant activity”. Still for that read-out and setting: the value for `CC(C)CCC[C@@H](C)[C@H]1CC[C@H]2[C@@H]3C=CC4=CC(=O)CC[C@]4(C)[C@H]3CC[C@]12C` [cholesta-4,6-dien-3-one] was “None of these compounds showed significant activity”; that for `CC(C)CCC[C@@H](C)[C@H]1CC[C@H]2[C@@H]3CC[C@H]4CC(=O)CC[C@]4(C)[C@H]3CC[C@]12C` [5α-cholestan-3-one] was “None of these compounds showed significant activity”. The same measure, in the same setting: the value for `CC(C)CCC[C@@H](C)[C@H]1CC[C@H]2[C@@H]3[C@H](O)CC4=CC(=O)CC[C@]4(C)[C@H]3C[C@H](O)[C@]12C` [7α,12α-diHCO, 7α,12α-Dihydroxycholest-4-en-3-one] was “None of these compounds showed significant activity”. `CC(C)CC[C@@H](O)[C@@H](C)[C@H]1CC[C@H]2[C@@H]3CC=C4C[C@@H](O)CC[C@]4(C)[C@H]3CC[C@]12C` [22R-HC, 22R-hydroxycholesterol, reference compound]: the “Lxr luciferase activity with addition of the Lxr antagonist GGPP” value on Lxrα (10 μM metabolite + 10 μM GGPP) was “similarly blocked”. Also, the “Number of Islet1+ cells” value in data set [1] is reported as “does not show an effect towards Islet1+ cells”. Consider `CC(CCC[C@@H](C)[C@H]1CC[C@H]2[C@@H]3[C@H](O)CC4=CC(=O)CC[C@]4(C)[C@H]3CC[C@]12C)C(=O)O` (stereo partly drawn) [7αH,3O-CA, 7α-hydroxy-3-oxocholest-4-en-26-oic acid], for which the “Lxrα activation … (fold activation)” value on Lxrα is reported as “none of which was found to show significant activity”. Besides, at Lxrβ, the “Lxrβ activation … (fold activation)” value is “none of which was found to show significant activity”. For the same molecule, the Islet-GFP expression entry in the data set on Islet-1 is listed as “failed to regulate Islet-GFP expression”.
